# In patent US20040038958A1, “Topical treatment of skin diseases” (priority 2002, published 2004):
# Values joined by “and” are separate entries in the source; they are usually repeats but may differ in a detail not shown here. Equal entries are not always repeated. “Also recorded” adds a separate entry of the source.
# How the values were obtained:
# [1] = Penetration of 14C AWD 12-281 through murine back skin (Franz diffusion cell); assay type: in vitro ADME, mouse
# Protocol: FIG. 1: Cutaneous permeation of ^14C AWD 12-281 measured using a “Franz” diffusion cell and murine back skin. Activity of ^14C AWD 12-281 was measured in […] during 360 min incubation. Results of two independent experiments. 15 μl (110322970 dpm) of ^14C AWD 12-281 (dissolved in acetone/DMSO 1:1) was applied to the shaved skin.
# The ability of ^14C AWD 12-281 to penetrate through murine back skin was tested in a diffusion cell (Franz cell). Dry shaved murine back skin was set onto the diffusion cell so that 1.5 cm (diameter) of the dermal side were in contact with warmed (34° C.) buffer (bovine serum). 15 μl (110322970 dpm) of ^14C AWD 12-281 (dissolved in acetone/DMSO 1:1) were applied to the shaved skin. Samples were taken 15, 60, 120, 180, 240, 300, 360 min and the radioactivity was measured in a β counter (Beckman, Munich, Germany). The experiment was performed twice.
# mice sensitized to TDI = assay: Mouse ear swelling test in mice sensitized to toluene-2,4-diisocyanate (TDI), topical application; assay type: in vivo, BALB/c-mice; conditions: for TDI-induced ear swelling: AWD 12-281 1%, cilomilast 3%, diflorasone 0.05%
# Protocol: FIG. 6: Effect of PDE 4 inhibitors on TDI induced ear swelling in mice. […] After 1 h (grey bars) groups of mice were treated with 3% AWD 12-281, 10% cilomilast or left untreated (TDI). After 24 h, ear swelling was determined (black bars). […] Female BALB/c-mice were obtained from Charles River (Sulzfeld, Germany) at the age of 8 weeks (20 g body weight). All animals were healthy and were housed in groups of six mice per cage at 22° C. with a 12-h light/dark-cycle. Water and a standard diet (Altromin, […], Germany) were available ad libitum. After settling in for 1 week, the abdominal skin of the mice was shaved and depilated with Veet®. Subsequently, the horny layers of the abdominal skin were stripped off ten times with adhesive tapes. […] Before as well as 24 h after challenge, the ear thickness was measured with a cutimeter (model 7309, Mitutoyo, Neuss, Germany) The swelling was calculated by comparison of the values before challenge with 24 h after challenge. […] The other mice were equally distributed to the treatment groups (n=6) according to their swelling intensity, so that each group contained animals which had responded to varying extents. They had to rest until the ear thickness had reached almost a normal level after 7 days. To exclude residues of the allergen on the ears, the untreated right ears were used for the main experiment. One group of mice (n=6) was not sensitized and challenged. […] Two hours before TDI-challenge, the third and fourth group (each n=6) were treated with 20 μl (10 μl on both, the inner and outer surface) AWD 12-281 (1%=200 μg) or 20 μl cilomilast (3%=600 μg; each in acetone/DMSO 9:1) to the right ears. […] These mice were sacrificed by cervical dislocation 24 hours after TDI challenge and the ears were collected (see below). […] Five weeks after the first challenge, the animals treated with AWD 12-281 (1%) and cilomilast (3%) “therapeutically” were challenged again. Before challenge, one group was treated with AWD 12-281 (3%).
# [2] = system: mice sensitized to TDI (long term exposure); assay: TDI induced ear swelling after long term (120 days) repeated exposure sensitization; assay type: in vivo; conditions: 120 days sensitization, AWD 12-281 3% 1 h after challenge
# Protocol: FIG. 4: Effect of AWD 12-281 on TDI induced ear swelling in mice sensitized to TDI using a long term (120 days) repeated exposure sensitization paradigm. Bars represent ear swelling 1, 5 and 24 h after TDI challenge.
# Furthermore, an experiment was carried out to obtain information on the therapeutic effects of AWD 12-281 in a model of long term exposure to TDI. Thus 10 mice were treated with 100 μl 0.5% TDI on the abdominal skin in intervals of 10 days for 120 days. Ten days after the last abdominal TDI treatment, mice were challenged on the left ear with 20 μl 0.5% TDI, split in 10 μl onto the outer and inner surface of the ear, respectively. One hour after TDI challenge 5 mice were treated with AWD 12-281 (3%), 5 mice were sham treated. Before as well as 1, 5 and 24 h after challenge, the ear thickness was measured.
# [3] = system: granulocyte influx in the dermis of mice ears; assay: Histological examination of mouse ear skin after TDI challenge; assay type: in vivo, BALB/c-mice
# Protocol: (§1) One part of the collected ears was fixed in 4% formaldehyde for histological section and stained with haematoxylin-eosin with respect to dermal thickness and granulocyte accumulation. These parameters were measured in 10 fields at 40 times magnification. The remaining tissue was shock-frozen and stored in liquid nitrogen immediately after sampling. For the determination of biochemical parameters, the mice ears were homogenized under liquid nitrogen. The homogenates were taken in 200 μl RPMI 1640 medium and the protease inhibitor Pefabloc® (1 mmol) was added and the samples were mixed intensively. After centrifugation (10000 g, 10 min, 4° C.), the supernatant was collected and the protein content was determined. The samples were stored at −80° C. until the cytokines were determined. Interleukin (IL) 4, IL-6 and MIP-2 were measured in the samples by ELISA using commercially available kits according to manufacturers instructions.
# [4] = system: macrophage inflammatory protein 2; assay: MIP-2 in homogenized mouse ears after TDI challenge (ELISA); assay type: in vivo, BALB/c-mice
# Protocol: as §1
# PDE4 = conditions: Griswold et al., 1998, Kuss et al., 2002; cited from earlier work
# [5] = system: passively sensitized human airways; conditions: Schmidt et al., 2000; cited from earlier work
# [6] = system: human cells from nasal polyps; conditions: antigen stimulated; Kuss et al., 2002; cited from earlier work
# [7] = system: sensitized Brown Norway rats; conditions: late phase airway reaction to antigen; Kuss et al., 2002; cited from earlier work
# domestic pigs = conditions: Kuss et al., 2002; cited from earlier work
compound,measurement,setting,value
"O=C(Nc1c(Cl)cncc1Cl)C(=O)c1cn(Cc2ccc(F)cc2)c2ccc(O)cc12 [AWD 12-281, N-(3,5-Dichloro-4-pyridinyl)-2-[1-(4-fluoro-benzyl)-5-hydroxy-1 H-indol-3-yl]-2-oxoacetamide]","amount of radioactivity measured in buffer, % of the total activity (cumulative absorption)","[1]; 14C AWD 12-281 in acetone/DMSO 1:1 on shaved murine back skin, 360 min (6 h) after application, two independent experiments",0.22% and 0.08%
same,absorption compared to hydrocortisone,"[1]; AWD 12-281 murine skin after 6 h vs hydrocortisone in human skin in Franz cells (Hueber et al., 1994)",tenfold higher absorption compared to hydrocortisone
same,Ear swelling (%),"mice sensitized to TDI; AWD 12-281 3% topical before challenge, rechallenge five weeks after first challenge, 24 h after TDI challenge, vehicle control 51 ± 7, mean ± s.e.",1 ± 2 %
same,TDI-induced ear swelling,"mice sensitized to TDI; single topical application 2 h before TDI challenge, 1, 5 and 24 h after challenge",inhibited the TDI-induced swelling significantly at all measured times
same,TDI-induced ear swelling,"mice sensitized to TDI; topical 1 h after TDI challenge (therapeutic), 24 h after challenge",reduced the inflammatory response to TDI significantly; also recorded: inhibited the TDI induced ear swelling significantly
same,TDI-induced ear swelling,"mice sensitized to TDI; topical 1 h after TDI challenge (therapeutic), 24 h after challenge, listed as AWD12-281",significant inhibition of ear swelling
same,TDI induced ear swelling,"mice sensitized to TDI; treated 1 h after 0.5% TDI, 3% AWD 12-281, 10% cilomilast, ear swelling after 24 h (FIG. 6)",reduced ear swelling significantly
same,TDI induced ear swelling,[2]; 1 and 5 h after challenge,no significant difference between the groups
same,TDI induced ear swelling,[2]; 5 h after challenge,slight inhibition
same,TDI induced ear swelling,[2]; 24 h after challenge,nearly abolished the TDI induced swelling; also recorded: inhibited the swelling significantly
same,"inflammatory cells and vascular leakage, histological examination","[3]; AWD 12-281 (3%) treated mouse ears, long term exposure study (not shown)",nearly total absense of inflammatory cells and vascular leakage
same,edema and influx of inflammatory cells (mainly granulocytes),"[3]; mouse ear skin 24 h after TDI challenge, topical treatment",inhibited these inflammatory processes markedly
same,concentration of MIP-2 in mouse skin,"[4]; 24 h after TDI challenge, AWD 12-281 3%, rechallenge",diminished the increase of the MIP-2 concentration significantly
same,concentration of macrophage inflammatory protein 2 in homogenized mouse ears,"[4]; 24 h after TDI challenge, topical 2 h before challenge, AWD 12-281 1%, cilomilast 3%, diflorasone 0.05%",reduced the increase slightly; also recorded: reduced this increase slightly
same,"MIP-2, mean inhibition (%) of the TDI induced synthesis","[4]; AWD 12-281 3%, cilomilast 3%, diflorasone 0.05%, 24 h after TDI challenge",75%
same,MIP-2,"[4]; AWD 12-281 3%, homogenized mouse ears 24 h after TDI challenge (rechallenge), vehicle control 286 ± 39, mean ± s.e.",72 ± 8 pg/400 µg protein
same,IC50 for PDE4 relative to cilomilast,PDE4,about ten times lower than that of cilomilast
same,bronchospasmogenic effect of an allergen,[5],significantly reduced the bronchospasmogenic effect of an allergen
same,"release of inflammatory mediators such as GM-CSF, TNF-α and histamine",[6],inhibited the release of inflammatory mediators
same,accumulation of eosinophils in bronchoalveolar lavage,[7],significantly reduced the accumulation of eosinophils
same,LPS induced lung neutrophilia,domestic pigs,inhibitory effects
